Assays:
Type in all cases: in vivo
transplanted rice plant = assay: Test Example 1: effect on crop, application before weed generation in submerged conditions (symbol a)
In short: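 Rice at 2.5 leaf stage transplanted into submerged soil (4 cm depth) sown with three weed species; herbicide applied before weed emergence.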

[1] = system: directly sowed rice plant; assay: Test Example 3: effect on crop by foliage application, Wagner pot (symbol b)
In short: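 Alluvial soil in a 1/10000-are Wagner pot was flooded to a water depth of 0.1–0.5 cm. Echinochloa crus-galli var. crus-galli, Leptochloa chinensis, Cyperus difformis and rice were sown into it and grown in a greenhouse at 25–30 °C.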

soybean = assay: Test Example 5: effect on crop by foliage application, plastic box (symbol d); conditions: 3 weeks after application
In short: (§1)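 Greenhouse test at 25° C. to 30° C. Seeds of crops and weeds were spot-sown in boxes of sterilized diluvial soil under roughly 1.5 cm soil cover, then grown for foliage treatment.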

[2] = system: Echinochloa oryzacola Vasing.; assay: Test Example 2: herbicidal activity, application during weed generation in submerged conditions (symbol A); conditions: Table 23, grade 0-5 by criteria of Test Example 1
In short: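 Scoring of herbicidal effect took place 3 weeks after treatment, using the criteria of the earlier test. Treatment was water-surface application of diluted emulsifiable compound at a set dose. Plants were at one- to two-leaf stage in submerged alluvial soil (4 cm depth), greenhouse 25-30° C.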

Monochoria vaginalis = assay: Test Example 1: herbicidal activity, application before weed generation in submerged conditions (symbol C)
In short: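 Mixed weed seeds sown in alluvial soil under 4 cm of water, with rice seedlings at the 2.5-leaf stage added. Same-day treatment: emulsion diluted to a set herbicide amount onto the water. Three weeks at 25–30 °C, then graded on a six-step scale.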

corn = assay: Test Example 5: effect on crop by foliage application, plastic box (symbol c); conditions: 3 weeks after application
In short: as §1

[3] = system: Echinochloa crus-galli var. crus-galli; assay: Test Example 3: herbicidal effect by foliage application, Wagner pot (symbol H)
In short: (§2)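 Foliar spray of a water-diluted emulsion at a predetermined herbicide amount, applied to 14-day-old plants. Seedlings were raised in flooded alluvial soil (0.1–0.5 cm water) at 25–30 °C in a greenhouse. Injury was rated after 3 weeks against fixed criteria.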

Digitaria ciliaris = assay: Test Example 4: herbicidal effect by soil treatment (symbol F)
In short: (§3)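 Seeds were sown in sterilized diluvial soil, covered with about 1.5 cm of soil, and the soil surface was sprayed with a water-diluted emulsion of the compound at a predetermined rate. Plants grew in a greenhouse at 25° C. to 30° C.; effects were scored visually 3 weeks after application.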

Lolium multiflorum Lam. = assay: Test Example 4: herbicidal effect by soil treatment (symbol K)
In short: as §3

Leptochloa chinensis = assay: Test Example 3: herbicidal effect by foliage application, Wagner pot (symbol D)
In short: as §2

beet = assay: Test Example 4: effect on crop by soil treatment (symbol f)
In short: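 Plants grew in a 25° C. to 30° C. greenhouse after spot-sowing of seeds, including beet, rapeseed, wheat and rice, into sterilized diluvial soil under roughly 1.5 cm of cover soil.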

[4] = application herbicide amount 269 g/ha
[5] = application herbicide amount 320 g/ha
[6] = application herbicide amount 320 g/ha, Table 24
[7] = application herbicide amount 102 g/ha

Structure (SMILES)	Effect grade on crop, a: transplanted rice plant (transplanted rice plant; [5])	effect on crop b (directly sowed rice plant), grade 0-5 [1, 5]	d: soybean, effect on crop (criteria 0-5) (soybean; 320 g/ha)	Herbicidal effect grade, A: Echinochloa oryzacola Vasing. [2, 5]	Herbicidal effect grade, C: Monochoria vaginalis (Monochoria vaginalis; [5])	c: corn, effect on crop (criteria 0-5) (corn; 320 g/ha)	herbicidal effect on H (Echinochloa crus-galli var. crus-galli), grade 0-5 [3, 5]	F: Digitaria ciliaris, herbicidal effect grade (Digitaria ciliaris; 320 g/ha)	K: Lolium multiflorum Lam., herbicidal effect grade (Lolium multiflorum Lam.; 320 g/ha)	herbicidal effect on D (Leptochloa chinensis), grade 0-5 (Leptochloa chinensis; [5])	f: beet, effect grade on crop (beet; 320 g/ha)	also measured
CC(=O)C(C)C1CC(O)=C(c2c(C)cc(C)cc2C)C1=O (stereo not drawn) [2-005]	–	–	–	–	–	–	–	–	–	–	–	Effect grade on crop, a: transplanted rice plant (transplanted rice plant; [4]): 4 (Herbicidal ratio of 70% or higher and lower than 90%); effect on crop b (directly sowed rice plant), grade 0-5 [1, 4]: 5 (Herbicidal ratio of 90% or more (almost completely withered)); d: soybean, effect on crop grade (soybean; 269 g/ha): 0 (Herbicidal ratio of 5% or lower (almost no effect)); Herbicidal effect grade, A: Echinochloa oryzacola Vasing. [2, 4]: 3 (Herbicidal ratio of 40% or higher and lower than 70%); Herbicidal effect grade, C: Monochoria vaginalis (Monochoria vaginalis; [4]): 0 (Herbicidal ratio of 5% or lower (almost no effect)); c: corn, effect on crop grade (corn; 269 g/ha): 3 (Herbicidal ratio of 40% or higher and lower than 70%); herbicidal effect on H (Echinochloa crus-galli var. crus-galli), grade 0-5 [3, 4]: 5 (Herbicidal ratio of 90% or more (almost completely withered)); F: Digitaria ciliaris, herbicidal effect grade (Digitaria ciliaris; [4]): 5 (Herbicidal ratio of 90% or more (almost completely withered)); K: Lolium multiflorum Lam., herbicidal effect grade (Lolium multiflorum Lam.; [4]): 5 (Herbicidal ratio of 90% or more (almost completely withered)); herbicidal effect on D (Leptochloa chinensis), grade 0-5 (Leptochloa chinensis; [4]): 5 (Herbicidal ratio of 90% or more (almost completely withered)); f: beet, effect on crop grade (beet; [4]): 0 (Herbicidal ratio of 5% or lower (almost no effect))
CON=C(C)CC1CC(OC(=O)c2cc(C)on2)=C(c2c(C)cc(C)cc2C)C1=O (stereo not drawn) [1-100]	5 (Herbicidal ratio of 90% or more (almost completely withered))	5 (Herbicidal ratio of 90% or more (almost completely withered))	3 (Herbicidal ratio of 40% or higher and lower than 70%)	5 (Herbicidal ratio of 90% or more (almost completely withered))	3 (Herbicidal ratio of 40% or higher and lower than 70%)	5 (Herbicidal ratio of 90% or more (almost completely withered))	5 (Herbicidal ratio of 90% or more (almost completely withered))	5 (Herbicidal ratio of 90% or more (almost completely withered))	5 (Herbicidal ratio of 90% or more (almost completely withered))	5 (Herbicidal ratio of 90% or more (almost completely withered))	0 (Herbicidal ratio of 5% or lower (almost no effect))	–
CON=C(CC1CC(OC(=O)C(C)(C)C)=C(c2c(C)cc(C)cc2OC)C1=O)C1CC1 (mixture of isomers) [13-006]	–	–	–	5 (Herbicidal ratio of 90% or more (almost completely withered))	–	–	–	–	–	–	–	a (transplanted rice plant) effect on crop grade (transplanted rice plant; [5]): 5 (Herbicidal ratio of 90% or more (almost completely withered)); b (directly sowed rice plant) effect on crop grade [1, 6]: 5 (Herbicidal ratio of 90% or more (almost completely withered)); d: soybean, effect on crop grade (soybean; 320 g/ha): 2 (Herbicidal ratio of 20% or higher and lower than 40%); C (Monochoria vaginalis) herbicidal effect grade (Monochoria vaginalis; [5]): 4 (Herbicidal ratio of 70% or higher and lower than 90%); c: corn, effect on crop grade (corn; 320 g/ha): 5 (Herbicidal ratio of 90% or more (almost completely withered)); H (Echinochloa crus-galli var. crus-galli) herbicidal effect grade [3, 6]: 5 (Herbicidal ratio of 90% or more (almost completely withered)); F: Digitaria ciliaris, herbicidal effect grade (Digitaria ciliaris; [5]): 5 (Herbicidal ratio of 90% or more (almost completely withered)); K: Lolium multiflorum Lam., herbicidal effect grade (Lolium multiflorum Lam.; [5]): 5 (Herbicidal ratio of 90% or more (almost completely withered)); D (Leptochloa chinensis) herbicidal effect grade (Leptochloa chinensis; [6]): 5 (Herbicidal ratio of 90% or more (almost completely withered)); f: beet, effect on crop grade (beet; [5]): 0 (Herbicidal ratio of 5% or lower (almost no effect))
CON=C(C)CC1CC(OC(=O)C(CSC)=NOC)=C(c2c(C)cc(C)cc2C)C1=O (stereo not drawn) [1-098]	5 (Herbicidal ratio of 90% or more (almost completely withered))	5 (Herbicidal ratio of 90% or more (almost completely withered))	3 (Herbicidal ratio of 40% or higher and lower than 70%)	5 (Herbicidal ratio of 90% or more (almost completely withered))	4 (Herbicidal ratio of 70% or higher and lower than 90%)	5 (Herbicidal ratio of 90% or more (almost completely withered))	5 (Herbicidal ratio of 90% or more (almost completely withered))	5 (Herbicidal ratio of 90% or more (almost completely withered))	5 (Herbicidal ratio of 90% or more (almost completely withered))	5 (Herbicidal ratio of 90% or more (almost completely withered))	0 (Herbicidal ratio of 5% or lower (almost no effect))	–
CON=C(C)CC1CC(OC(=O)N(C)C)=C(c2c(C)cc(C)cc2C)C1=O (stereo not drawn) [1-108]	5 (Herbicidal ratio of 90% or more (almost completely withered))	5 (Herbicidal ratio of 90% or more (almost completely withered))	3 (Herbicidal ratio of 40% or higher and lower than 70%)	5 (Herbicidal ratio of 90% or more (almost completely withered))	3 (Herbicidal ratio of 40% or higher and lower than 70%)	5 (Herbicidal ratio of 90% or more (almost completely withered))	5 (Herbicidal ratio of 90% or more (almost completely withered))	5 (Herbicidal ratio of 90% or more (almost completely withered))	5 (Herbicidal ratio of 90% or more (almost completely withered))	5 (Herbicidal ratio of 90% or more (almost completely withered))	0 (Herbicidal ratio of 5% or lower (almost no effect))	–
CC(=O)CC1CC(O)=C(c2c(C)cc(C)cc2C)C1=O (stereo not drawn) [2-001, 3-hydroxy-2-mesityl-5-(2-oxopropyl)cyclopent-2-enone]	–	–	–	–	–	–	–	–	–	–	–	Effect grade on crop, a: transplanted rice plant (transplanted rice plant; [7]): 4 (Herbicidal ratio of 70% or higher and lower than 90%); effect on crop b (directly sowed rice plant), grade 0-5 [1, 7]: 5 (Herbicidal ratio of 90% or more (almost completely withered)); d: soybean, effect on crop grade (soybean; 102 g/ha): 0 (Herbicidal ratio of 5% or lower (almost no effect)); Herbicidal effect grade, A: Echinochloa oryzacola Vasing. [2, 7]: 0 (Herbicidal ratio of 5% or lower (almost no effect)); Herbicidal effect grade, C: Monochoria vaginalis (Monochoria vaginalis; [7]): 0 (Herbicidal ratio of 5% or lower (almost no effect)); c: corn, effect on crop grade (corn; 102 g/ha): 3 (Herbicidal ratio of 40% or higher and lower than 70%); herbicidal effect on H (Echinochloa crus-galli var. crus-galli), grade 0-5 [3, 7]: 5 (Herbicidal ratio of 90% or more (almost completely withered)); F: Digitaria ciliaris, herbicidal effect grade (Digitaria ciliaris; 102 g/ha): 5 (Herbicidal ratio of 90% or more (almost completely withered)); K: Lolium multiflorum Lam., herbicidal effect grade (Lolium multiflorum Lam.; 102 g/ha): 5 (Herbicidal ratio of 90% or more (almost completely withered)); herbicidal effect on D (Leptochloa chinensis), grade 0-5 (Leptochloa chinensis; [7]): 5 (Herbicidal ratio of 90% or more (almost completely withered)); f: beet, effect grade on crop (beet; 102 g/ha): 0 (Herbicidal ratio of 5% or lower (almost no effect))
